# Laboratory results from ChEMBL document CHEMBL5614433, “The "Doorstop Pocket" In Thioredoxin Reductases─An Unexpected Druggable Regulator of the Catalytic Machinery” (J Med Chem, 2024).
# Key:
# [1] = Inhibition of human TrxR1 incubated for 6 hrs in presence of NADPH
# [2] = target: T1, Thioredoxin glutathione reductase (Schistosoma mansoni) (UniProt Q962Y6); test: Inhibition of Schistosoma mansoni TGR at 66.7 uM incubated for 6 hrs in presence of NADPH
# T1 sequence (whole entry): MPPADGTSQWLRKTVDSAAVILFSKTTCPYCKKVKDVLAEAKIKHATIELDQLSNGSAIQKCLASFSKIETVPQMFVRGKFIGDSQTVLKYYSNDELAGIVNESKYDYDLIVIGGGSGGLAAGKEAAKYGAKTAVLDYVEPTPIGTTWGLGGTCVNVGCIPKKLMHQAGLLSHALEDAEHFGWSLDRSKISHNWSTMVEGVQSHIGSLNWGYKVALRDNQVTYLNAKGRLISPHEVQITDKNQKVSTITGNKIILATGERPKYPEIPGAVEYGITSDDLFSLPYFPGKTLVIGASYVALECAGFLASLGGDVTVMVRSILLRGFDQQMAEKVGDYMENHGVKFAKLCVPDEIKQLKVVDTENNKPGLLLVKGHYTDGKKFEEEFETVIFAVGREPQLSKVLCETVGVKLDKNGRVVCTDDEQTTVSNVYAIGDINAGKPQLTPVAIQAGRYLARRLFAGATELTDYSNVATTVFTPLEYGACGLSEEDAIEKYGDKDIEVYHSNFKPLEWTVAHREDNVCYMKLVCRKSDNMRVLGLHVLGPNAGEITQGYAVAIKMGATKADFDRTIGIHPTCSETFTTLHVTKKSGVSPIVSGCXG
# [3] = Inhibition of human TrxR1 incubated for 15 mins in presence of NADPH
# [4] = Cytotoxicity against african green monkey Vero cells measured after 24 hrs; assay type: toxicity, cell-based; conditions: chlorocebus sabaeus, read-out: LD50
# [5] = target: T2, Thioredoxin glutathione reductase (Schistosoma mansoni, UniProt Q962Y6); test: Inhibition of Schistosoma mansoni TGR incubated for 15 mins in presence of NADPH
# T2 sequence (Q962Y6 whole entry): T1 sequence (whole entry)
# [6] = system: Schistosoma mansoni; test: Schistosomicidal-activity against Schistosoma mansoni adult worm measured after 24 hrs; assay type: functional; conditions: read-out: LD50 (the source's name)
# [7] = Selectivity ratio of IC50 for human TrxR1 to IC50 for Schistosoma mansoni TGR
# [8] = Inhibition of human TrxR1
Compound,IC50 [1],inhibition [2],further results
Cc1oc(C2CCCCC2)nc1CN[C@@H]1C[C@@H]2C[C@H]([C@H]1C)C2(C)C,> 19 µM,28.7%,
C[C@@H]1[C@H]2C[C@@H](C[C@H]1NCc1nc3ccccc3n1C1CCCCCC1)C2(C)C,,,IC50 [3]: 4.9 µM
C#CCN(Cc1nc(-c2ccccc2)oc1C)C1C[C@@H]2C[C@H]([C@H]1C)C2(C)C (stereo partly drawn),,,CC50 at 24 h [4]: > 100 µM; IC50 [5]: 2.5 µM; LC50 [6]: 15.7 µM; Ratio IC50 [7]: 25; IC50 [3]: > 66.7 µM
C[C@@H]1[C@H]2C[C@@H](C[C@H]1NCc1cn([C@@H]3OC[C@@H](O)[C@H](O)[C@H]3O)c3ccccc13)C2(C)C,,,IC50 [5]: 57.5 µM
Cc1oc(-c2ccc3c(c2)OCO3)nc1CN[C@@H]1C[C@@H]2C[C@H]([C@H]1C)C2(C)C,> 19 µM,28.7%,
Cc1oc(-c2ccccc2)nc1CN[C@@H]1C[C@@H]2C[C@H]([C@H]1C)C2(C)C,> 19 µM,28.7%,
CCc1ccccc1-c1nc(CN[C@@H]2C[C@@H]3C[C@H]([C@H]2C)C3(C)C)c(C)o1,> 19 µM,28.7%,
Cc1oc(-c2ccc3ccccc3c2)nc1CNC1CCCCCC1,> 19 µM,28.7%,
O=C(Nc1ccc(Cl)cc1)c1ccc([N+](=O)[O-])o1,,,IC50 [8]: 3.8 µM
